Measured values from patent US20250215029A1 (Recludix Pharma, Inc., priority 2022, published 2025).
pIC50: −log10 of the molar value. Read-outs that look alike come from different tables or passages of the source.

Legend:
pY705-STAT3 in PBMC = target: T1, pY705-STAT3 in PBMC (Homo sapiens, UniProt P40763); experiment: MSD-pSTAT-PBMC Assay (pSTAT3, IL-6 stimulated); format: cell-based; conditions: PBMC, compound 3 hrs, then 10 ng/mL IL-6 for 10 min; Table 115; read-out: STAT3
T1 construct: Cryopreserved Peripheral Blood Mononuclear Cells (PBMC) are from AllCells; host or cells: cryopreserved PBMC
From the text: Cryopreserved Peripheral Blood Mononuclear Cells (PBMC) are from AllCells. Recombinant Human IL-4 and IL-6 are from Peprotech. Mouse monoclonal anti-STAT3 antibody, rabbit monoclonal anti-pY705-STAT3 antibody, rabbit monoclonal Anti-pY641-STAT6 antibody, and lysis buffer are from Cell Signaling Technology (CST). Mouse monoclonal anti-STAT6 antibody is from BioLegend. Assay plates, blocker, and anti-rabbit secondary antibody are from Meso Scale Discovery (MSD).
Cyropreserved PBMCs were thawed out and allowed to recover overnight in IMDM+10% heat-inactivated FBS prior to plating 50,000 (STAT3) or 25,000 (STAT6) cells per well in 96-well U-bottom tissue culture plates. Cells were treated with compound for 3 hrs, then stimulated with 10 ng/mL IL-6 (STAT3) or 1 ng/mL IL-4 (STAT6) for 10 min. Cells were then spun down and washed with ice-cold PBS prior to lysing the cell pellet with 1× lysis buffer (CST) with 1× HALT protease and phosphatase inhibitor cocktail (Thermo). Lysates were transferred to and incubated overnight at 4° C. with shaking in QuickPlex 96-well high bind assay plates (MSD) pre-coated overnight with 30 μL per well of 0.6 μg/mL mouse monoclonal anti-STAT3 antibody (STAT3) or 2 μg/mL mouse monoclonal anti-STAT6 antibody (STAT6) in 1× PBS, and pre-blocked for 1 hour with 3% Blocker-A (MSD). Captured protein in the assay plates were then washed and probed with 25 μL per well of […] rabbit monoclonal anti-pY705-STAT3 antibody (STAT3) or 0.18 μg/ml rabbit monoclonal Anti-pY641-STAT6 antibody (STAT6) in 1% Blocker-A for 1 hour at room temperature with shaking, then washed and probed with 25 ul per well of 1 ug/ml Sulfo-TAG Labeled Goat Anti-Rabbit Antibody (MSD) in 1% Blocker-A for 1 hour at room temperature with shaking. Assay plates were then washed and 150 μL of 1× Read Buffer-T (MSD) was added to each well prior to reading on an SQ120 MSD Plate Reader. Assay signal from each sample was subtracted by the signal from unstimulated control wells and normalized to DMSO control wells. IC50 values were calculated using Graph Pad Prism Dose-Response Nonlinear Regression with variable slope. For both pSTAT3 and pSTAT6 A=≤100 nM; B 100-1000 nM; C=>1000-3000 nM; D=>3 μM; and NT=Not Tested.

[1] = target: T2, Recombinant STAT3 protein (STAT3 (G127-I722)) (Homo sapiens, UniProt P40763); experiment: STAT3 Fluorescence Polarization (FP) Assay; format: binding; conditions: STAT3 (G127-I722) 25 nM, probe 5-FAM-GpYLPQTV-NH2 2 nM, 45-minute incubation; read-out: STAT3 (FP assay IC50 class)
T2 construct: Recombinant STAT3 protein (STAT3 (G127-I722))
Summary of the method: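 Displacement of a 2 nM 5-FAM-labelled pY peptide (GpYLPQTV) from 25 nM recombinant STAT3 (G127-I722) was monitored by fluorescence polarization. Incubation lasted 45 min at room temperature in pH 7.4 HEPES buffer containing 1% DMSO.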

[2] = target: T3, Recombinant STAT6 protein (STAT6 (W123-T658)) (Homo sapiens, UniProt P42226); experiment: STAT6 Fluorescence Polarization (FP) Assay; format: binding; conditions: STAT6 (W123-T658) 250 nM, 45-minute incubation, read-out: STAT6 (FP assay IC50 class)
T3 construct: Recombinant STAT6 protein (STAT6 (W123-T658))
T3 sequence (P42226 123-658): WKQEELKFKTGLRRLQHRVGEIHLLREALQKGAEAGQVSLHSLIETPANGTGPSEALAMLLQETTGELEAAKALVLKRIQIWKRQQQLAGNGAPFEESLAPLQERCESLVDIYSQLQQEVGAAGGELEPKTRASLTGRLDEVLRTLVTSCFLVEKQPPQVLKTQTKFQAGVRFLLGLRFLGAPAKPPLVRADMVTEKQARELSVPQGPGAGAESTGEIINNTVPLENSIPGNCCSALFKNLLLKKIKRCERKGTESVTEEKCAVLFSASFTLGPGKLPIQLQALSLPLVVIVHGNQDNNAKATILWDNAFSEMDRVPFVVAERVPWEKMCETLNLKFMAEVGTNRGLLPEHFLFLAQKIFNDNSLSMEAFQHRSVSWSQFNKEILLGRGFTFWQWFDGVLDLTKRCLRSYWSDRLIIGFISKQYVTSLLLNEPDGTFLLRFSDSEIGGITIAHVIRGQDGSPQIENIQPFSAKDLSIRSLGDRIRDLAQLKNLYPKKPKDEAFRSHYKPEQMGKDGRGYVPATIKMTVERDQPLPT
Summary of the method: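 Serially diluted compounds received a premix of STAT6 (W123-T658, 250 nM) and 5-FAM peptide probe (2 nM) in pH 7.4 HEPES buffer containing DTT and Tween 20. Following 45 min at room temperature, FP was recorded. IC50s were fitted by nonlinear regression; values are binned A (≤300 nM), B (>300-3000 nM), C (>3-30 μM), D (>30 μM).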

[3] = probe 5-FAM-ApYKPFQDLI-NH2 2 nM

T2 sequence (P40763 127-722): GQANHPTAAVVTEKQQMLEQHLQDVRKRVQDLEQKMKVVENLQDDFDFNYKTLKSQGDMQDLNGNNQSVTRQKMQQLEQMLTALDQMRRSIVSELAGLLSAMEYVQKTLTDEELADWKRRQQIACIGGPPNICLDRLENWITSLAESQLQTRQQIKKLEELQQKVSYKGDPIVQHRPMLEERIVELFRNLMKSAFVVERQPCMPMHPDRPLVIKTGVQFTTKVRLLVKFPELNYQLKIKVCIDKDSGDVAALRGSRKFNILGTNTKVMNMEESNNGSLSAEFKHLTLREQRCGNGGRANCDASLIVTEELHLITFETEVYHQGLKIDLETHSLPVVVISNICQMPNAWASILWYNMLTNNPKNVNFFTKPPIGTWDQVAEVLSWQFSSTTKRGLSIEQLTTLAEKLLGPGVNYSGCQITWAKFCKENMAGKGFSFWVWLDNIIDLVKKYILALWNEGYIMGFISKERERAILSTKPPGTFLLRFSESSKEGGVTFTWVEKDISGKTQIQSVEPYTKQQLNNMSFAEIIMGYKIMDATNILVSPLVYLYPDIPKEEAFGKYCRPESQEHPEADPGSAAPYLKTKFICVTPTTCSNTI
T1 sequence (P40763 whole entry): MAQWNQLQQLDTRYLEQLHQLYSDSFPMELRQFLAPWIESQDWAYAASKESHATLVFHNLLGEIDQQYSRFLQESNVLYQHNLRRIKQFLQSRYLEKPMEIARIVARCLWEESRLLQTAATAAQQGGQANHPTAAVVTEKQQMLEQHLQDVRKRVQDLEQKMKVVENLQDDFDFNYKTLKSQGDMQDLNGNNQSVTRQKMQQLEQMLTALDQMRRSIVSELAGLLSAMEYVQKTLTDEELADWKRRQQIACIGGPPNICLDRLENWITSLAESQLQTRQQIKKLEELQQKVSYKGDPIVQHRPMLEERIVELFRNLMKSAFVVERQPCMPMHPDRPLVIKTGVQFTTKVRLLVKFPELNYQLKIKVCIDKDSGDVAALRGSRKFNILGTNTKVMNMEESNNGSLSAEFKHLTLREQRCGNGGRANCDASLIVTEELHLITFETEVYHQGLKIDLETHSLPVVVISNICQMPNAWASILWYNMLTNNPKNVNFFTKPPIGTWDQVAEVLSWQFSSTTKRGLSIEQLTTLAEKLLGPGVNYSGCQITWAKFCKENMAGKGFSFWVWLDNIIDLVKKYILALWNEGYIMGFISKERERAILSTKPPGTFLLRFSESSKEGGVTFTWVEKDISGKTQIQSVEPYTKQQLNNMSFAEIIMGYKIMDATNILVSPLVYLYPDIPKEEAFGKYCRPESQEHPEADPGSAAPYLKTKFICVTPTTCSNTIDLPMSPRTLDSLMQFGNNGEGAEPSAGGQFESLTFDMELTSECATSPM

Compound | pIC50 (pY705-STAT3 in PBMC) | pIC50 [1] | other results
CCCOC(=O)[C@H](C)N[P@](=O)(Oc1ccccc1)[C@@H](F)c1ccc2sc(C(=O)N[C@H]3CCC[C@H]4CC[C@@H](C(=O)N5CC(c6cccnc6)C5)N4C3=O)cc2c1 (single isomer, unassigned) [Compound 446] | > 7.00 | – | –
CCCOC(=O)[C@H](C)N[P@@](=O)(Oc1ccccc1)[C@H](F)c1ccc2sc(C(=O)N[C@H]3CCC[C@H]4CC[C@@H](C(=O)N5CC(c6cccnc6)C5)N4C3=O)cc2c1 (single isomer, unassigned) [Compound 463] | > 7.00 | – | –
COc1ccncc1C1CN(C(=O)[C@@H]2CC[C@@H]3CCC[C@H](NC(=O)c4cc5cc([C@@H](F)[P@@](=O)(N[C@@H](C)C(=O)OC(C)C)Oc6ccccc6)ccc5s4)C(=O)N32)C1 (single isomer, unassigned) [Compound 955] | > 7.00 | – | –
COc1ccncc1C1CN(C(=O)[C@@H]2CC[C@@H]3CCC[C@H](NC(=O)c4cc5cc([C@@H](F)[P@@](=O)(N[C@@H](C)C(=O)OC(C)C)Oc6ccccc6)ccc5s4)C(=O)N32)C1 (single isomer, unassigned) [Compound 956] | > 7.00 | – | –
COc1ccncc1C1CN(C(=O)[C@@H]2CC[C@@H]3CCC[C@H](NC(=O)c4cc5cc([C@H](F)[P@@](=O)(N[C@@H](C)C(=O)OCC(C)(C)C)Oc6ccccc6)ccc5s4)C(=O)N32)C1 (single isomer, unassigned) [Compound 959] | > 7.00 | – | –
COc1ccncc1C1CN(C(=O)[C@@H]2CC[C@@H]3CCC[C@H](NC(=O)c4cc5cc([C@H](F)[P@](=O)(N[C@@H](C)C(=O)OCC(C)(C)C)Oc6ccccc6)ccc5s4)C(=O)N32)C1 (single isomer, unassigned) [Compound 960] | 6.00 to 7.00 | – | –
CCCOC(=O)[C@H](C)N[P@](=O)(Oc1ccccc1)[C@H](F)c1ccc2sc(C(=O)N[C@H]3CCC[C@H]4CC[C@@H](C(=O)N5CC(c6cnccc6F)C5)N4C3=O)cc2c1 (single isomer, unassigned) [Compound 997] | > 7.00 | – | –
CCCOC(=O)[C@H](C)N[P@](=O)(Oc1ccccc1)[C@H](F)c1ccc2sc(C(=O)N[C@H]3CCC[C@H]4CC[C@@H](C(=O)N5CC(c6cnccc6F)C5)N4C3=O)cc2c1 (single isomer, unassigned) [Compound 998] | > 7.00 | – | –
CCCOC(=O)[C@H](C)N[P@](=O)(Oc1ccccc1)[C@H](F)c1ccc2sc(C(=O)N[C@H]3CCC[C@H]4CC[C@@H](C(=O)N5CC(c6cnccc6OC)C5)N4C3=O)cc2c1 (single isomer, unassigned) [Compound 999] | > 7.00 | – | –
CCCOC(=O)[C@H](C)N[P@@](=O)(Oc1ccccc1)[C@H](F)c1ccc2sc(C(=O)N[C@H]3CCC[C@H]4CC[C@@H](C(=O)N5CC(c6cnccc6C)C5)N4C3=O)cc2c1 (single isomer, unassigned) [Compound 1000] | > 7.00 | – | –
CCCOC(=O)[C@H](C)N[P@@](=O)(Oc1ccccc1)[C@H](F)c1ccc2sc(C(=O)N[C@H]3C[C@@H](C)C[C@H]4CC[C@@H](C(=O)N5CC(c6cnccc6C)C5)N4C3=O)cc2c1 (single isomer, unassigned) [Compound 1001] | > 7.00 | – | –
COc1ccncc1C1CN(C(=O)[C@@H]2CC[C@@H]3CCC[C@H](NC(=O)c4cc5cc([C@H](F)[P@@](=O)(N[C@@H](C)C(=O)OC(C)C)Oc6ccccc6)ccc5s4)C(=O)N32)C1 (single isomer, unassigned) [Compound 1023] | 6.00 to 7.00 | – | –
CCCOC(=O)[C@H](C)N[P@@](=O)(Oc1ccccc1)[C@@H](F)c1ccc2sc(C(=O)N[C@H]3CCC[C@H]4CC[C@@H](C(=O)N5CC(c6cnccc6C)C5)N4C3=O)cc2c1 (single isomer, unassigned) [Compound 1027] | > 7.00 | – | –
CCCOC(=O)[C@H](C)N[P@@](=O)(Oc1ccccc1)[C@@H](F)c1ccc2sc(C(=O)N[C@H]3CCC[C@H]4CC[C@@H](C(=O)N5CC(c6cnccc6OC)C5)N4C3=O)cc2c1 (single isomer, unassigned) [Compound 1032] | > 7.00 | – | –
O=C(N[C@H]1CCC[C@H]2CC[C@@H](C(=O)N3CCN(c4cccnc4)CC34CC4)N2C1=O)c1cc2cc(C(F)(F)P(=O)(O)O)ccc2s1 [Compound 1125, (difluoro(2-(((3S,6S,9aS)-5-oxo-3-(7-(pyridin-3-yl)-4,7-diazaspiro[2.5]octane-4-carbonyl)octahydro-1H-pyrrolo[1,2-a]azepin-6-yl)carbamoyl)benzo[b]thiophen-5-yl)methyl)phosphonic acid] | – | > 7.00 | pIC50 ([2]; probe 5-FAM-Ap[…]-NH2 2 nM): 5.52 to 6.52
Cn1cnnc1C1CN(C(=O)[C@@H]2CC[C@@H]3CCC[C@H](NC(=O)c4cc5cc(C(F)(F)P(=O)(O)O)ccc5s4)C(=O)N32)CCO1 (stereo partly drawn) [Compound 1126, (difluoro(2-(((3S,6S,9aS)-3-(2-(4-methyl-4H-1,2,4-triazol-3-yl)morpholine-4-carbonyl)-5-oxooctahydro-1H-pyrrolo[1,2-a]azepin-6-yl)carbamoyl)benzo[b]thiophen-5-yl)methyl)phosphonic acid] | – | 6.00 to 7.00 | pIC50 ([2]; probe 5-FAM-Ap[…]-NH2 2 nM): 5.52 to 6.52
Cc1nnc(C2CN(C(=O)[C@@H]3CC[C@@H]4CCC[C@H](NC(=O)c5cc6cc(C(F)(F)P(=O)(O)O)ccc6s5)C(=O)N43)CCO2)o1 (stereo partly drawn) [Compound 1127, (difluoro(2-(((3S,6S,9aS)-3-(2-(5-methyl-1,3,4-oxadiazol-2-yl)morpholine-4-carbonyl)-5-oxooctahydro-1H-pyrrolo[1,2-a]azepin-6-yl)carbamoyl)benzo[b]thiophen-5-yl)methyl)phosphonic acid] | – | 6.00 to 7.00 | pIC50 ([2]; probe 5-FAM-Ap[…]-NH2 2 nM): 5.52 to 6.52
((S)-(2- (((3S,6S,9aS)-3- ((6S,7R)-7-cyano-6- (pyridin-3-yl)-4- azaspiro[2.4] heptane-4- carbonyl)-5- oxooctahydro-1H- pyrrolo[1,2- a]azepin-6- yl)carbamoyl)benzo [b]thiophen-5- yl)fluoromethyl) phosphonic acid [Compound 838] | – | 5.00 to 6.00 | pIC50 [2, 3]: ≥ 6.52
(difluoro(2- (((3S,6S,10aS)-3- ((1R,5S,6S)-6-(5- methyl-1,3,4- oxadiazol-2-yl)-3- azabicyclo[3.1.0] hexane-3- carbonyl)-5- oxodecahydropyrrolo [1,2-a]azocin-6- yl)carbamoyl)benzo [b]thiophen-5- yl)methyl)phosphon ic acid [Compound 804] | – | 6.00 to 7.00 | pIC50 [2, 3]: 5.52 to 6.52
(difluoro(2- (((3S,6S,10aS)-5- oxo-3-((1R,5S,6R)- 6-phenyl-3- azabicyclo[3.1.0] hexane-3- carbonyl)decahydro pyrrolo[1,2- a]azocin-6- yl)carbamoyl)benzo [b]thiophen-5- yl)methyl) phosphonic acid [Compound 805] | – | 6.00 to 7.00 | pIC50 [2, 3]: 4.52 to 5.52
